Test results as given in patent US7320995B2, “Benzimidazoles and benzothiazoles as inhibitors of map kinase” (Eli Lilly and Company, priority 2002, dated 2008).
Blank lines part the entries; values can stand above or below the compound they belong to.

Experiments:
[1] = system: TNF-α production in mouse peritoneal macrophages; experiment: Inhibition of TNF-α in vitro, mouse peritoneal macrophages, Luminex; assay type: cell-based; details: Peritoneal macrophage; LPS and interferon-γ stimulated mouse peritoneal macrophages, 18 hours; read-out: IC50, suppression of TNF-α in vitro
Experimental: At day 4 or 5 post-injection the mice are sacrificed and then injected i.p. with 4 mL Dulbecco's phosphate-buffered saline (BioWhittaker) and the peritoneal macrophages are withdrawn by syringe. Mouse peritoneal macrophages are counted with a hemocytometer and adjusted to 2.5×10^6 cells/ml complete media (RPMI-1640 medium containing 10% fetal bovine serum). Cells are plated in 96-well flat-bottom plates at 5×10^5 cells per 200 μl per well and allowed to settle and adhere to the bottom of the well for at least 3 hours. […] (20 μL/well). The cells are then treated with a mixture of 50 ng/L lipopolysaccharide (LPS) and 10 U/mL interferon-γ for 18 hours at 37° C. (20 μL/well). The conditioned media is harvested and assayed for TNF-α production using the Luminex procedure. […] The premixed anti-cytokine conjugated beads are vortexed (25×) vigorously for 30 seconds. The anti-cytokine conjugated beads are diluted to a 1× concentration using 1× Bio-Plex Assay Buffer. For every plate, 240 μL of the pre-mixed beads is added to 5760 μL of Bio-Plex Assay Buffer. […] The blocking buffer is filtered through using a Millipore filtration system and then toweled dry. Two washes are performed on the filter plate with 100 μl/well of Bio-Plex Assay Buffer and toweled dry. The 1× anti-cytokine conjugated beads are vortexed for 15 seconds and added 50 μL to each well. This is filtered through and toweled dry. Two washes are performed on plates with 100 μl/well of Bio-Plex Wash Buffer. Again, it is filtered through and toweled dry. 50 μL of sample or standard is added to each sample well. This is incubated for 60 seconds at room temperature on a shaker protected from light at setting 6 and then for 30 minutes at setting 3 and then placed in the refrigerator overnight. […] Standards and samples are read on a Luminex machine. These intensity readings are then converted to picogram/milliliter units based on a 12-point standard curve created in duplicate using a four-parameter logistic regression method (Bio-Plex Manager, Versions 2.0 and 3.0, Bio-Rad), and the IC50 calculated.

[2] = Rat collagen induced arthritis efficacy model; assay type: in vivo, female Lewis rats
Experimental: Female Lewis rats ((≅190 gm, Charles River Labs) are immunized with Bovine type II collagen (2 mg/ml) emulsified with an equal volume of adjuvant (aluminum hydroxide). […]. The rats are immunized with approximately […] of the emulsion intradermally on the back near the base of the tail. All animals are re-immunized 7 days later according to the same protocol. The rats begin to develop arthritis (characterized by swelling and redness of one or both ankles) from 12 to 14 days after the first immunization. The rats are equally distributed into five treatment groups at the first signs of arthritis and treatment is initiated with each rat dosed bid for 14 days.
• Group 1 Vehicle (1% NaCarboxymethylcellulose+0.25% Tween 80) 1 mL, PO, Bid×14 days • Group 2 Example 77 (free base), 5 mg/kg, 1 mL, PO, Bid×14 • Group 3 Example 77 (free base), 15 mg/kg, 1 mL, PO, Bid×14 • Group 4 Example 77 (free base), 30 mg/kg, 1 mL, PO, Bid×14 • Group 5 Prednisolone 10 mg/kg, 1 mL, PO, qd×14
Ankle diameter is measured with calipers 5 days a week and recorded. Data is expressed as the area under the curve (AUC) generated from the composite inflammation scores and statistical analysis performed.
At the termination of the study, animals were sacrificed and ankles processed for histological evaluation. […]

[3] = system: MAPKAP-K2 phosphorylation in P815 tumors; experiment: In vivo target inhibition study in P815 mastocytoma model; design: species or system DBA/2 mice; details: single oral dose 30 mg/kg
Experimental: In vivo target inhibition is determined by measuring the effect of inhibitor treatment on the phosphorylation of MAPKAP-K2 expressed in P815 tumor tissues. Tumors in DBA/2 mice received P815 cells subcutaneous implantation are allowed to grow to a size of 300-500 mg without treatment. Tumor bearing mice are then given oral administration of Example 77 (free base) or vehicle. To investigate time course related target inhibition by Example 77 (free base), tumors are harvested from CO2 sacrificed animals at the indicated times (3 hours, 6 hours, 12 hours, and 18 hours) after compound is dosed at 30 mg/kg. Dose-dependent target inhibition by Example 77 (free base) is investigated by harvesting tumors at 3 hours after orally given different doses of Example 77 (free base) or vehicle. Harvested tumors are immediately snap frozen onto dry ice, pulverized, homogenized and lysed in cooled lysis buffer containing proteinase and phosphatase inhibitors. After centrifugation to remove cell debris, supernatants containing 100 microgram total proteins are resuspended in 2×Tris-Glycin loading buffer and subjected to sodium dodecyl sulfate-polyacrylamide gel electrophoresis (10% Tris-Glycine) under reducing conditions. […] Expression level of phospho-p38 MAP kinase and total p-38 MAP kinase is also monitored by similar western blotting procedure.

[4] = system: MAPKAPK-2 phosphorylation (p38 MAPK) in B16F10 tumors; experiment: B16F10 target (phosphorylated MAPKAPK-2) studies, immuno-blot of tumors; assay type: in vivo, C57B16 mice
TNF-α = experiment: Effect on intra-articular LPS induced TNF-α (synovial lavage fluid, ELISA); assay type: in vivo, female Lewis rats; details: orally, one hour before intra-articular LPS, lavage after two hours
Experimental: Intra-articular injection of LPS into rat […] induces the synthesis of TNF-α, which can be measured in synovial lavage fluid. High levels of TNF-α are detectable within 2 hours. Since the joint is the site where arthritis develops, this model can rapidly determine whether an orally administered compound has an effect on an inflammatory response in the synovium.
Six female Lewis rats (150-200 g) are place in each treatment group. The animals are given vehicle (1% NaCarboxymethylcellulose-0.25% Tween 80) or Example 77 (free base) (1 mg/kg, 3 mg/kg, 10 mg/kg, and 30 mg/kg) orally. One hour later, 10 μl LPS (10 μg) is administered intra-articulately into the right ankle of each rat, while the left ankle receives 10 μL of saline. After two hours, each […] is laved with 100 μL of saline. The lavage is collected and stored at −80° C. • Group#1: Vehicle (1% NaCMC-0.25% Tween 80, 1 mL, PO) • Group#2: Example 77 (free base) (1 mg/kg, 1 mLl, PO) • Group#3: Example 77 (free base) (3 mg/kg, 1 mL, PO) • Group#4: Example 77 (free base) (10 mg/kg, 1 mL, PO) • Group#5: Example 77 (free base) (30 mg/kg, 1 mL, PO)
TNF-α was measured with a commercially available ELISA kit (R&D, RTA00). […] The TMED50=10 mg/kg for Example 77 in this assay.

[5] = system: B16F10 melanoma lung metastases; experiment: Inhibition of B16F10 melanoma lung metastases; assay type: in vivo, C57B16 mice; details: day -1 to 16
Experimental: The B16F10 melanoma cell line is obtained from the American Type Culture Collection, Rockville, Md. The cells are cultured in RPMI-1640 medium supplemented with 10% fetal calf serum. The cells grown in vitro are harvested during their exponential growth phase by gentle trypsinization, washed twice in medium, and resuspended in serum-free RPMI-1640 medium. The number of monodisperse viable cells is determined using a hemocytometer and adjusted to 1×10^6 cells/mL. Tumor cells are injected intravenously into the tail vein of normal C57B16 mice with an inoculum volume of 0.2 ml containing 200,000 cells. Mice are treated with test compound or vehicle control starting 1 day before i.v. tumor inoculation. Example 77 (free base) is prepared as a suspension formulation in 1% NaCMC/0.25% polysorbate 80 and probe sonicated in an injection volume of 1% body weight (e.g., the 30 mg/kg dose level is prepared at 3 mg/ml and 0.2 cc was administered per 20 gram mouse). Mice are treated orally tid. with the compound at 30, 10, and 3 mg/kg (90, 30, and 9 mg/kg/day) from days −1 through 16 after tumor cell inoculation. Control mice receive the vehicle alone in an identical manner. On day 16, the mice are sacrificed, and the lungs are harvested and fixed in 3% paraformaldehyde. Lung lesions are quantitated by manual counting under a dissecting microscope.
The test compound was tested in the B16F10 melanoma lung metastasis model orally at 3, 10, and 30 mg/kg, tid from one day before to 16 days after i.v. tumor inoculation (total dose 9, 30 and 90 mg/kg/day). The lungs were harvested on day 16 and lung lesions were quantitated.

P815 tumors = experiment: Inhibition of P815 tumor growth in vivo; design: species or system DBA/2 mice
Experimental: Female(6-8 weeks old) DBA/2 mice (Taconic) are implanted subcutaneously into the hind flank region on day 0 with P815 cells (0.5×10^6 cells in 200 ul of RPMI 1640). P815 tumor cells are purchased from ATCC and are cultured in RPMI 1640 medium, supplemented with glutamine and 10% bovine serum at 37° C. in 5% CO2 cell culture incubator. Tumor-bearing animals are treated with oral administration of Example 77 (free base), at different doses or vehicle with frequency of three times a day started on the day of implantation. Tumor growth is monitored every 2 days by measuring perpendicular diameters. Tumor volume expressed in milligram (mg) is determined as the product of the largest diameter (a) and its perpendicular (b) according to the formula [tumor volume=a×b^2×0.536].

angiogenesis = details: J. R. Jackson, et al., 1998; cited from earlier work

IC50 [1]: < 100 nM
Structure (SMILES): CC(C)S(=O)(=O)n1c(N)nc2ccc(-c3nc(-c4cccs4)[nH]c3-c3ccccc3)cc21 [Example 1, 1-isopropylsulfonyl-2-amino-6-(2-(thien-2-yl)-5-(phenyl)-imidazol-4-yl)-benzimidazole methanesulfonate]

IC50 [1]: < 100 nM
Structure (SMILES): CC(C)S(=O)(=O)n1c(N)nc2ccc(-c3nc(-c4ccncc4)[nH]c3-c3ccccc3)cc21 [Example 16, 1-isopropylsulfonyl-2-amino-6-(2-(pyridin-4-yl)-5-(phenyl)-imidazol-4-yl)-benzimidazole]

IC50 [1]: < 100 nM
Structure (SMILES): CC(C)S(=O)(=O)n1c(N)nc2ccc(-c3nc(-c4nccs4)[nH]c3-c3ccccc3)cc21 [Example 17, 1-isopropylsulfonyl-2-amino-6-(2-(thiazol-2-yl)-5-(phenyl)-imidazol-4-yl)-benzimidazole]

Structure (SMILES): CC(C)S(=O)(=O)n1c(N)nc2ccc(-c3nc(-c4c(F)cccc4F)[nH]c3-c3ccccc3)cc21 [Example 77, 1-isopropylsulfonyl-2-amino-6-(2-(2,6-difluorophenyl)-5-(phenyl)-imidazol-4-yl)-benzimidazole]
maximum reduction in ankle diameter ([2]; 30 mg/kg PO bid x 14 days): 46%
earliest time of the inhibitory effect on MAPKAP-K2 phosphorylation [3]: 3 h
time to which the inhibitory effect on MAPKAP-K2 phosphorylation extended [3]: 12 h
time for which p38 MAPK activity was inhibited ([4]; 30 mg/kg, time course study): up to 9 hours
ANOVA TMED50, inhibition of MAPKAPK-2 phosphorylation ([4]; 2.5 hours after p.o. dosing): 3 mg/kg
lowest dose with appreciable inhibition of MAPKAPK-2 phosphorylation ([4]; 2.5 hours after p.o. dosing): 0.3 mg/kg
reduction of the phosphorylation level of MAPKAPK-2 in the tumors ([4]; doses >30 mg/kg): > 80%
TMED50, inhibition of TNF-α synthesis in synovial lavage fluid (TNF-α): 10 mg/kg
inhibition of lung metastasis formation ([5]; 3 mg/kg orally tid): 54%
inhibition of lung metastasis formation ([5]; 10 mg/kg orally tid): 73%
inhibition of lung metastasis formation ([5]; 30 mg/kg orally tid): 95%
inhibition of tumor volume (P815 tumors; 3 mg/kg oral tid): 55%
inhibition of tumor volume (P815 tumors; 30 mg/kg oral tid): 67%

Structure (SMILES): C[C@]12C=CC(=O)C=C1CC[C@@H]1[C@@H]2[C@@H](O)C[C@@]2(C)[C@H]1CC[C@]2(O)C(=O)CO [Prednisolone, reference compound]
inflammation (ankle diameter) ([2]; 10 mg/kg PO qd x 14): reduced the inflammation to pre-arthritic levels

Structure (SMILES): Nc1nccc(-c2c(-c3ccc(F)cc3)ncn2C2CCNCC2)n1 [SB22025]
inhibition of angiogenesis (angiogenesis): has been shown to inhibit angiogenesis
